Like-named read-outs stand apart in the source and are kept apart here.
What was measured:
[1] = tested on: Aβ40 in conditioned medium of cells stably expressing Amyloid Precursor Protein (APP); test: In vitro BACE cell-based assay (Aβ40 in conditioned medium, sandwich ELISA); conditions: read-out: HEK cell assay
Procedure: In Vitro BACE Cell-Based Assay
The cell-based assay measures inhibition or reduction of Aβ40 in conditioned medium of test compound treated cells expressing amyloid precursor protein.
Cells stably expressing Amyloid Precursor Protein (APP) were plated at a density of 40K cells/well in 96 well plates (Costar). The cells were cultivated for 24 hours at 37° C. and 5% CO2 in DMEM supplemented with 10% FBS. The test compounds were then added to cells in 10-point dose response concentrations with the starting concentration being either 100 μM or 10 μM. The compounds were diluted from stock solutions in DMSO and the final DMSO concentration of the test compounds on cells was 0.1%. […] The IC50 of the compound was calculated from the percent of control or percent inhibition of Aβ 40 as a function of the concentration of the test compound.
The sandwich ELISA to detect Aβ 40 was performed in 96 well microtiter plates, which were pre-treated with goat anti-rabbit IgG (Pierce). The capture and detecting antibody pair that were used to detect Aβ 40 from cell supernatants were affinity purified pAb40 (Biosource) and biotinylated 6E10 (Signet Labs Inc.), respectively. The optimal concentration for the pAb40 antibody was 3 μg/ml in Superblock/TBS (Pierce) that was supplemented with 0.05% Tween 20 (Sigma).
Cellular supernatants were incubated with the capture antibody for 3 h at 4° C., followed by 3 wash steps in TBS-tween (0.05%). The detecting antibody incubation was for 2 h at 4° C., again followed by the wash steps as described previously. The final readout of the ELISA is Time-Resolved Fluorescence (counts per minute) using Delfia reagents Streptavidin-Europium and Enhancement solutions (Perkin Elmer) and the Victor 2 multilabel counter (Perkin Elmer).

[2] = target: Beta Secretase enzyme (BACE) (Homo sapiens, UniProt P56817); test: In vitro enzymatic BACE FRET (fluorescence resonance energy transfer) assay; type: biochemical; conditions: average IC50, enzyme assay; read-out: BACE 1 FRET assay
Sequence of Beta Secretase enzyme (BACE) (P56817 46-501, species assumed): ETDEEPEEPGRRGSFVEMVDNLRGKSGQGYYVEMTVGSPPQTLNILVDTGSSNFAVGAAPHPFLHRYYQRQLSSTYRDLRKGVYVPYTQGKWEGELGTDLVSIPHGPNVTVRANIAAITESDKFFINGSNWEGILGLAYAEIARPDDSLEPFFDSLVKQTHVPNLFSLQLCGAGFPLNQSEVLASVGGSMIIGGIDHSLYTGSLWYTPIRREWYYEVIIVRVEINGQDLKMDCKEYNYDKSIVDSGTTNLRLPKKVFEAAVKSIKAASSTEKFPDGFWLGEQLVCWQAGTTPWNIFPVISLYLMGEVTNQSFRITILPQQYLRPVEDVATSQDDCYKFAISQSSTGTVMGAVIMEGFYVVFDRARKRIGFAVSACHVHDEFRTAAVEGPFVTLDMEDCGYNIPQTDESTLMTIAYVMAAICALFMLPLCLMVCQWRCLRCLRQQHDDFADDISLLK
Procedure: In Vitro Enzymatic Bace Fret (Fluorescence Resonance Energy Transfer) Assay (Enzyme Assay Data in the Example Table I)
The assay buffer used in this screen is 0.05 M acetate, pH 4.2, 10% DMSO final, 100 uM genapol (which is a nonionic detergent, below its Critical Micelle Concentration). […] This assay is effectively started by the addition of FRET substrate (50 nM) and the combination is incubated for one hour. The FRET assay is terminated with by addition of Tris buffer, which raises the pH to neutrality, and the fluorescence is determined. The FRET substrate is a peptide with commercially available fluorophore and quencher, on opposite sides of the BACE cleavage site.

[3] = Homo sapiens, HEK293, average IC50
[4] = Homo sapiens, HEK293, average IC50, HEK cells

| SMILES | IC50 [1, 3] | IC50 [2] | IC50 [1, 4] | IC50 [1] |
| --- | --- | --- | --- | --- |
| C[C@@](C#Cc1cnc2c(c1)[C@]1(COC(N)=N1)c1cc(-c3cccnc3F)ccc1O2)(CO)CCl (single isomer, unassigned) [Example 1014] | – | 0.0022 µM | – | 0.021 µM |
| COC[C@H]1SC(N)=NC12c1cc(-c3cccnc3F)ccc1Oc1cnc(-c3ccnc(F)c3)cc12 (single isomer, unassigned) [Example 1093, (4′S/R,5′S)-7-(2-fluoropyridin-3-yl)-3-(2-fluoropyridin-4-yl)-5′-(methoxymethyl)-5′H-spiro[chromeno[2,3-c]pyridine-5,4′-thiazol]-2′-amine] | – | 0.0057 µM | – | 0.495 µM |
| COC[C@H]1SC(N)=NC12c1cc(-c3cccnc3F)ccc1Oc1cnc(-c3ccnc(F)c3)cc12 (single isomer, unassigned) [Example 1095, (4′S/R,5′S)-7-(2-fluoropyridin-3-yl)-3-(2-fluoropyridin-4-yl)-5′-(methoxymethyl)-5′H-spiro[chromeno[2,3-c]pyridine-5,4′-thiazol]-2′-amine] | – | 0.573 µM | – | 5.99 µM |
| C[Si](C)(C)c1cc2c(nc1F)Oc1ccc(Br)cc1[C@@]21COC(N)=N1 [Example 90, (5S)-7-bromo-2-fluoro-3-(trimethylsilyl)spiro[chromeno[2,3-b]pyridine-5,4′-[1,3]oxazol]-2′-amine] | 10 µM | 0.862 µM | – | – |
| CC(C)(C#N)COc1cc(F)c2c(c1)[C@]1(COC(N)=N1)c1cc(-c3cnccn3)ccc1O2 [Example 93, (S)-3-(2-amino-5′-fluoro-2′-(pyrazin-2-yl)-5H-spiro[oxazole-4,9′-xanthene]-7′-yloxy)-2,2-dimethylpropanenitrile] | 0.0146 µM | 0.0028 µM | – | – |
| CC(C)(O)CCc1ccc2c(c1)[C@]1(COC(N)=N1)c1cc(-c3cncnc3)c(F)cc1O2 [Example 96, (R)-4-(2-amino-3′-fluoro-2′-(pyrimidin-5-yl)-5H-spiro[oxazole-4,9′-xanthene]-7′-yl)-2-methylbutan-2-ol] | 0.0228 µM | 0.0107 µM | – | – |
| CCC(C)CSc1cnc2c(c1)[C@]1(COC(N)=N1)c1cc(-c3cccnc3)ccc1O2 (stereo partly drawn) [Example 99, (4′S)-3-(2-methylbutylthio)-7-(pyridin-3-yl)-5′H-spiro[chromeno[2,3-b]pyridine-5,4′-oxazol]-2′-amine] | 0.302 µM | 0.0173 µM | – | – |
| CC(C)(C)COc1cc2c(cn1)Oc1ccc(-c3cccnc3F)cc1C21COC(N)=N1 (stereo not shown) [Example 102, 7-(2-fluoropyridin-3-yl)-3-(neopentyloxy)-5′H-spiro[chromeno[2,3-c]pyridine-5,4′-oxazol]-2′-amine 2,2,2-trifluoroacetate] | – | 0.0011 µM | 0.0262 µM | – |
| CC1(C#Cc2cnc3c(c2)[C@]2(COC(N)=N2)c2cc(-c4cnccc4F)ccc2O3)COC1 [Example 104, (S)-7-(4-fluoropyridin-3-yl)-3-((3-methyloxetan-3-yl)ethynyl)-5′H-spiro[chromeno[2,3-b]pyridine-5,4′-oxazol]-2′-amine] | 0.012 µM | 0.0011 µM | – | – |
| NC1=NC2(CO1)c1cc(-c3cccnc3F)ccc1Oc1c(F)cc(C3=CCOCC3)nc12 (stereo not shown) [Example 105, 2-(3,6-dihydro-2H-pyran-4-yl)-4-fluoro-8-(2-fluoropyridin-3-yl)-5′H-spiro[chromeno[3,2-b]pyridine-10,4′-oxazol]-2′-amine] | – | 0.0035 µM | 0.0144 µM | – |
| NC1=N[C@@]2(CO1)c1cc(-c3cccc(C(F)(F)F)c3)ccc1Oc1cnc(C3=CCOCC3)cc12 [Example 145, (5S)-3-(3,6-dihydro-2H-pyran-4-yl)-7-(3-(trifluoromethyl)phenyl)spiro[chromeno[2,3-c]pyridine-5,4′-[1,3]oxazol]-2′-amine] | 0.0819 µM | 0.0022 µM | – | – |
| C[Si](C)(C)c1cc2c(nc1F)Oc1ccc(-c3cccnc3F)cc1[C@@]21COC(N)=N1 [Example 146, (5S)-2-fluoro-7-(2-fluoro-3-pyridinyl)-3-(trimethylsilyl)spiro[chromeno[2,3-b]pyridine-5,4′-[1,3]oxazol]-2′-amine] | 0.169 µM | 0.0123 µM | – | – |

The next lines start with results.

| IC50 [1, 3] | IC50 [2] | IC50 [1, 4] | SMILES | IC50 [1] |
| --- | --- | --- | --- | --- |
| 0.627 µM | 0.0152 µM | – | NC1=N[C@]2(CO1)c1cc(-c3cccnc3)ccc1Oc1c2cc(C2=CCOCC2)c(F)c1F (single isomer, unassigned) [Example 1006] | – |
| 0.106 µM | 0.0084 µM | – | CC1(COc2cnc3c(c2)C2(COC(N)=N2)c2cc(-c4cc(Cl)ccc4F)ccc2O3)OCCO1 (stereo not shown) [Example 87, 7-(5-chloro-2-fluorophenyl)-3-((2-methyl-1,3-dioxolan-2-yl)methoxy)-5′H-spiro[chromeno[2,3-b]pyridine-5,4′-oxazol]-2′-amine] | – |
| 0.0042 µM | 0.001 µM | – | CC(C)(O)CCc1cc(F)c2c(c1)[C@]1(COC(N)=N1)c1cc(-c3cccnc3F)ccc1O2 [Example 92, (S)-4-(2-amino-5′-fluoro-2′-(2-fluoropyridin-3-yl)-5H-spiro[oxazole-4,9′-xanthene]-7′-yl)-2-methylbutan-2-ol] | – |
| 0.0197 µM | 0.0063 µM | – | C[C@@H]1CN(c2cc(F)c3c(c2)[C@]2(COC(N)=N2)c2cc(-c4cnccn4)ccc2O3)C[C@H](C)O1 [Example 94, (S)-2′-((2R,6S)-2,6-dimethylmorpholino)-4′-fluoro-7′-(pyrazin-2-yl)-5H-spiro[oxazole-4,9′-xanthen]-2-amine] | – |
| – | 0.002 µM | 0.0046 µM | CC1(C#Cc2cnc3c(c2)C2(CSC(N)=N2)c2cc(-c4cccnc4F)ccc2O3)COC1 (stereo not shown) [Example 98] | – |
| – | 0.0005 µM | 0.0045 µM | CC1(CCc2cc(F)c3c(c2)[C@]2(COC(N)=N2)c2cc(-c4cccnc4F)ccc2O3)COC1 [Example 101, (S)-4′-fluoro-7′-(2-fluoropyridin-3-yl)-2′-(2-(3-methyloxetan-3-yl)ethyl)-5H-spiro[oxazole-4,9′-xanthen]-2-amine] | – |
| – | 0.0077 µM | 0.18 µM | NC1=N[C@@]2(CO1)c1cc(-c3cccnc3)ccc1Oc1c2cc(-c2cccnc2)[nH]c1=O [Example 107, (S)-2′-amino-3,7-di(pyridin-3-yl)-5′H-spiro[chromeno[2,3-c]pyridine-5,4′-oxazol]-1(2H)-one] | – |
| 2.16 µM | 0.0632 µM | – | NC1=N[C@@]2(CC1(F)F)c1cc(-c3cccnc3)ccc1Oc1ncc(-c3cccnc3)cc12 [Example 112, (5S)-4′,4′-difluoro-3,7-di-3-pyridinyl-3′,4′-dihydrospiro[chromeno[2,3-b]pyridine-5,2′-pyrrol]-5′-amine] | – |
| 0.004 µM | 0.0005 µM | – | Cc1ccc(-c2cc(F)c3c(c2)[C@]2(COC(N)=N2)c2cc(-c4cccnc4F)ccc2O3)nn1 [Example 114, (S)-4′-fluoro-7′-(2-fluoropyridin-3-yl)-2′-(6-methylpyridazin-3-yl)-5H-spiro[oxazole-4,9′-xanthen]-2-amine] | – |
| – | 0.0004 µM | 0.0021 µM | NC1=N[C@@]2(CO1)c1cc(-c3cccnc3F)ccc1Oc1c2cc(C2=CCOCC2)nc1F [Example 130, (S)-3-(3,6-dihydro-2H-pyran-4-yl)-1-fluoro-7-(2-fluoropyridin-3-yl)-5′H-spiro[chromeno[2,3-c]pyridine-5,4′-oxazol]-2′-amine] | – |
| 0.114 µM | 0.0174 µM | – | Cc1cncc(-c2ccc3c(c2)[C@@]2(COC(N)=N2)c2cc(-c4ccnc(C#N)c4)ncc2O3)c1 [Example 141, 4-((5S)-2′-amino-7-(5-methyl-3-pyridinyl)spiro[chromeno[2,3-c]pyridine-5,4′-[1,3]oxazol]-3-yl)-2-pyridinecarbonitrile] | – |
| 0.532 µM | 0.0158 µM | – | NC1=N[C@@]2(CO1)c1cc(-c3ccccc3)ccc1Oc1cnc(-c3ccccc3)cc12 [Example 142, (5S)-3,7-diphenylspiro[chromeno[2,3-c]pyridine-5,4′-[1,3]oxazol]-2′-amine] | – |
| 0.0094 µM | 0.0011 µM | – | N#Cc1cccc(-c2ccc3c(c2)[C@@]2(COC(N)=N2)c2cc(C4=CCOCC4)ncc2O3)c1 [Example 143, 3-((5S)-2′-amino-3-(3,6-dihydro-2H-pyran-4-yl)spiro[chromeno[2,3-c]pyridine-5,4′-[1,3]oxazol]-7-yl)benzonitrile] | – |
| 0.0088 µM | 0.0016 µM | – | COc1cncc(-c2ccc3c(c2)[C@@]2(COC(N)=N2)c2cc(C4=CCOCC4)ncc2O3)c1 [Example 144, (5S)-3-(3,6-dihydro-2H-pyran-4-yl)-7-(5-methoxy-3-pyridinyl)spiro[chromeno[2,3-c]pyridine-5,4′-[1,3]oxazol]-2′-amine] | – |
